The source of these data is patent publication US20250195528A1, “DOSE REGIMEN OF VICASINABIN” (Hoffmann-La Roche Inc., priority 2022, published 2025).

For the data set, the target named is T1, CB2 (Rattus norvegicus, UniProt Q9QZN9).
T1 sequence (Q9QZN9 1-360): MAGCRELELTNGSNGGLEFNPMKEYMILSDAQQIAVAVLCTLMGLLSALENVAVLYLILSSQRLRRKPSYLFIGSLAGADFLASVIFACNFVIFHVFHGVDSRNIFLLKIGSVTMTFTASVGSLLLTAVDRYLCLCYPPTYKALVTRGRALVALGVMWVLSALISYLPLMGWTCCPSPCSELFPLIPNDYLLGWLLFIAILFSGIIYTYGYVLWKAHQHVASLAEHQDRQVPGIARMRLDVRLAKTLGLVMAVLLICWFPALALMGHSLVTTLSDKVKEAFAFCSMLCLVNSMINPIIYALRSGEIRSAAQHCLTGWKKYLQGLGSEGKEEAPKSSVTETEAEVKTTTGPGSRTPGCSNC
Nature of the data set: In vitro rat Ki. Format: binding. From the text: FIG. 10 illustrates Disease Markers versus Free Exposure of the Active S-Epimer RO6868847 in Several Animal Models. […] Disease markers (hyperfluorescence area in mm^2, OD retina-plasma fluorescein ratio, number of leukocytes per mm^2 or total length of processes in mm) as a percent of the control value (100% represents the vehicle-treated diabetic control and 0% for vehicle-treated healthy control) in different in vivo PD models as a function of the free AUC0-24 of the active S-epimer RO6868847.
Based on this integrated assessment, the pharmacologically active exposure range observed in rats spans 2 logs, with an upper bound (unbound AUC0-24 [S-epimer]=546 ng·hr/mL) corresponding to the full effect at 10 mg/kg in a rat STZ-induced Type 1 diabetes model and the lower bound (unbound AUC0-24 [S-epimer]=2.8 ng·hr/mL) corresponding to 50% decrease in disease marker (hypoerfluorescence area) in a laser-induced NV rat model.

As usually defined, the Ki is a measure of affinity in units of concentration, obtained from inhibition or displacement. The low end stands for a stronger hold on the target, the high end for a looser hold on the target. In the case of `Cn1nnnc1Cn1nnc2c(N3CC[C@H](O)C3)nc(C(C)(C)C)nc21` [RO6868847, (3S)-1-[5-tert-butyl-3-[(1-methyltetrazol-5-yl)methyl]triazolo[4,5-d]pyrimidin-7-yl]pyrrolidin-3-ol], the Ki by setting is: (rat) 33.3 nM; (rat, converted from nM) 33.5 nM. Further, the “unbound AUC0-24 at in vitro rat Ki as share of upper bound of active exposure” value (rat) was found to be 52%. Also, the “free AUC0-24 extrapolated from rat Ki” value (rat Ki x 24) is 286 ng·h/mL.
